According to patent publication US20080050759A1, “Screening Assay for Anti-Bacterial Compounds” (Bayer Healthcare AG, priority 2003, published 2008):
≈ marks a conversion by molar mass, not a printed value. Where two headings read alike, the source gives them in different places.

How the values were obtained:
[1] = test system: S30 extracts from S. aureus 133; assay: Gram-positive in vitro coupled transcription/translation (T/T) assay, S. aureus S30 extract; format: biochemical
Protocol: A procedure similar to the preparation of S30 extracts described by Murray et. al. (2) was used for S. aureus. Brain heart infusion (BHI) medium (6 l) was inoculated with 250 ml overnight culture of S. aureus 133 grown in BHI at 37° C. with agitation (170 rpm). Cells were cultured at 37° C. until an OD595nm of 2.5 was reached prior to centrifugation at 6000×g for 15 min at 4° C. Pellets were washed once with 500 ml cold S30-buffer A (10 mM Tris-acetate pH 8.0, 14 mM Mg-acetate, 1 mM DTT, 1 M KCl) and once with 250 ml of cold S30-buffer A containing 50 mM KCl. Pellets were frozen for 1 h at −20° C. or overnight at −70° C., thawed on ice and resuspended to a final volume of 99 ml buffer B (10 mM Tris-acetate pH 8.0, 20 mM Mg-acetate, 1 mM DTT, 50 mM KCl). A 1.5 ml aliquote of lysostaphin (0.8 mg/ml) in buffer B was added to each of three centrifuge tubes and 33 ml of the cell suspension were added. Samples were incubated at 37° C. for 1 h with gentle agitation prior to the addition of 150 μl 0.5 M DTT. Lysed cells were centrifuged for 30 min at 30,000×g at 4° C. and the resulting pellet was washed once with 33 ml S30-buffer B. The pooled supernatants were recentrifuged at 30,000×g for 30 min at 4° C. 100 ml of the supernatant were incubated with 25 ml preincubation buffer (670 mM Tris-acetate pH 8.0, 20 mM Mg-acetate, 7 mM Na3-PEP, 7 mM DTT, 5.5 mM ATP, 70 μM amino acids complete [Promega], 75 μg pyruvate kinase [Sigma]/ml) for 30 min at 37° C. to translate mRNAs. The preincubated supernatants were dialysed at 4° C. against 2 l of 10 mM Tris-acetate pH 8.0, 14 mM Mg-acetate, 1 mM DTT, 60 mM KCl with one buffer change using a Spectra-Por dialysis bag with a molecular weight cutoff of 3,500. The dialysate was gently concentrated by covering the dialysis bag with polyethylene glycol 8,000 powder (Sigma) at 4° C. to a protein concentration of ˜10 mg/ml. The resulting S30 extracts were flash frozen and stored in aliquots at −70° C.
(§1) The final assay volume was 59 μl. Inhibitor (3 μl dissolved in 10% DMSO), plasmid DNA (10 μl of optimal concentration in water pH 8.0) and 46 μl S30 extract [optimal concentration in 23 μl premixed with 23 μl incubation buffer (0.5 M potassium acetate, 87.5 mM Tris/acetate pH 8.0, 67.5 mM ammonium acetate, 50 μg/ml folinic acid, 5 mM DTT, 87.5 mg/ml polyethylene glycol 8000, 5 mM ATP; 1.25 mM of each CTP, GTP and UTP; 0.02 mM amino acids, 50 mM phosphoenolpyruvate trisodium salt, 2.5 mM cyclic AMP, 250 μg of each E. coli tRNA/ml) were added and incubated at 30° C. for 1 h. When using pT7-FF as a template 0.05 μl or 0.1 μl (50 U/μl) T7-RNA-Polymerase (Gibco BRL) were added to the S30 extracts used in the assay. Newly synthesized luciferase was detected by measuring bioluminescence for 60 s in a luininometer after the addition of 50 μl substrate buffer containing luciferine (20 mM Tricine/Cl pH 7.8, 2.67 mM MgSO4, 0.1 mM EDTA, 33.3 mM DTT, 0.27 mM Coenzyme A, 0.47 mM luciferine, 0.53 mM ATP).
MIC (minimal inhibitory concentration) values were determined as described in Example 4. Numbers in square brackets relate to the unit in square brackets as given in the column heading.

[2] = test system: S30 extracts from S. pneumoniae 1707/4; assay: Gram-positive in vitro coupled transcription/translation (T/T) assay, S. pneumoniae S30 extract; format: biochemical
Protocol: S. pneumoniae 1707/4 was grown overnight at 37° C. on agar plates containing 5% sheep blood under microaerophilic conditions. Cells were collected and inoculated into 4.8 l of BHI medium containing 5% bovine serum prior to cultivation at 37° C. under microaerophilic conditions for 5 h. S30 extracts were prepared as described for S. aureus 133 with some modifications. Cells were harvested and washed by centrifugation at 20,000×g for 15 min. The resulting cell pellet was resuspended in 20 ml buffer B, 3 mg lysozyme were added, incubated for 40 min at 37° C. prior to the addition of 75 μl 0.5 M DTT. The S30 sediment was washed with 8 ml buffer B and 7 ml preincubation buffer were added to the pooled supernatants.
as §1
(§2) The shape of the inhibition profiles is more or less similar for these compounds, in case of Streptomycin the lower IC50 value for S. aureus 133 compared to E. faecalis 27263 can be seen. templates pXyl-FF and pT7-FF with S30 extracts of the indicated bacterial strains. […] MIC (minimal inhibitory concentration) values were determined as described in Example 4. Numbers in square brackets relate to the unit in square brackets as given in the column heading.

[3] = test system: S30 extracts from E. faecalis 27263; assay: Gram-positive in vitro coupled transcription/translation (T/T) assay, E. faecalis S30 extract; format: biochemical
Protocol: E. faecalis 26273 was grown overnight in 250 ml BHI medium containing 2% bovine serum at 37° C. under microaerophilic conditions. The overnight culture was used to inoculate 4.8 1 BHI medium, cells were incubated at 37° C. under microaerophilic conditions with agitation (170 rpm) until an OD600 nm of ˜1.6 was reached. Preparation of S30 extracts was done as described for S. aureus with the following exceptions. Cells were harvested and washed at 7000×g at 4° C. for 12 min and resuspended in 100 ml S30-buffer B. For cell lysis 15 mg lysozyme resuspended in 1 ml S30-buffer B were added and incubated for 2 h at 37° C. with agitation. To complete cell lysis extracts were passed once through a French Press at 600 psi.
as §1, §2

E. faecalis 27263 = assay: Minimum inhibitory concentration, micro broth dilution; format: cell-based
Protocol: (§3) MIC determinations were performed using the micro broth dilution method with an inoculum of 5×10^5 cfu/ml in BHI medium. Growth was read after 24 h of incubation at 37° C. Test compounds were dissolved in dimethyl sulfoxide and diluted to a concentration not higher than 2.5% dimethyl sulfoxide. For S. pneumoniae 1707/4 and E. faecalis 27263 16% bovine serum were added and incubated under microaerophilic conditions.

S. aureus 133 = assay: as above; format: cell-based; details: BHI medium, 24 h, 37° C.
Protocol: as §3

S. pneumoniae 1707/4 = assay: as above; format: cell-based
Protocol: as §3

[4] = test system: S30 extracts derived from all three Gram-positives; assay: In vitro coupled T/T assay, for all three Gram-positive S30 extracts; format: biochemical, S. aureus, S. pneumoniae, E. faecalis; details: at high concentrations
Protocol: To validate the in vitro coupled T/T assay for screening of potential inhibitors of transcription and translation several antibiotics of known mode of action were tested.

[5] = template pT7-FF with T7 RNA polymerase, read-out: IC50
[6] = template pT7-FF, value in square brackets
[7] = template pXyl-FF, 50% inhibition of in vitro translation of luciferase, read-out: IC50
[8] = template pXyl-FF, value in square brackets
[9] = template pXyl-FF, read-out: IC50
[10] = Enterococcus faecalis, 27263, BHI medium, 16% bovine serum, microaerophilic, 24 h, 37° C., read-out: MIC
[11] = Staphylococcus aureus, 133, read-out: MIC
[12] = Streptococcus pneumoniae, 1707/4, BHI medium, 16% bovine serum, microaerophilic, 24 h, 37° C., read-out: MIC
[13] = BHI medium, 16% bovine serum, microaerophilic, 24 h, 37° C.

Row | SMILES | IC50 [1, 5] | IC50 [1, 6] | IC50 [1, 7] | IC50 [1, 8] | IC50 [2, 5] | IC50 [2, 6] | IC50 [3, 5] | IC50 [3, 6] | IC50 [3, 9] | IC50 [3, 8] | MIC (E. faecalis 27263; [10]) | MIC (S. aureus 133; [11]) | MIC (S. pneumoniae 1707/4; [12]) | inhibition in the in vitro coupled T/T assay [4] | MIC (E. faecalis 27263; Enterococcus faecalis, 27263, 24 h) | MIC (S. pneumoniae 1707/4; Streptococcus pneumoniae, 1707/4, 24 h) | MIC (E. faecalis 27263; [13]) | MIC (S. aureus 133) | MIC (S. pneumoniae 1707/4; [13])
1 | CC1(C)S[C@@H]2[C@H](NC(=O)[C@H](N)c3ccccc3)C(=O)N2[C@H]1C(=O)O [Ampicillin] | > 142000 nM | > 50 µg/mL | > 285000 nM | > 100 µg/mL | > 285000 nM | > 100 µg/mL | > 142000 nM | > 50 µg/mL | > 142000 nM | > 50 µg/mL | 3.1 µg/mL (≈ 8.87 µM) | 0.4 µg/mL (≈ 1.14 µM) | 0.12 µg/mL (≈ 0.343 µM) | no or only weak inhibition | – | – | – | – | –
2 | O=C(N[C@H](CO)[C@H](O)c1ccc([N+](=O)[O-])cc1)C(Cl)Cl [Chloramphenicol] | 7400 nM | 2.4 µg/mL | 9300 nM | 3.0 µg/mL | 11800 nM | 3.8 µg/mL | 16700 nM | 5.4 µg/mL | 14900 nM | 4.8 µg/mL | > 16 µg/mL | 4 µg/mL (≈ 12.4 µM) | 4 µg/mL (≈ 12.4 µM) | – | – | – | – | – | –
3 | CC[C@H]1OC(=O)[C@H](C)[C@@H](O[C@H]2C[C@@](C)(OC)[C@@H](O)[C@H](C)O2)[C@H](C)[C@@H](O[C@@H]2O[C@H](C)C[C@H](N(C)C)[C@H]2O)[C@](C)(O)C[C@@H](C)C(=O)[C@H](C)[C@@H](O)[C@]1(C)O [Erythromycin] | 200 nM | 0.15 µg/mL | 200 nM | 0.15 µg/mL | 50 nM | 0.04 µg/mL | 400 nM | 0.3 µg/mL | 200 nM | 0.15 µg/mL | > 100 µg/mL | 0.1 µg/mL (≈ 0.136 µM) | 0.1 µg/mL (≈ 0.136 µM) | – | – | – | – | – | –
4 | CC(=O)NC[C@H]1CN(c2ccc(N3CCOCC3)c(F)c2)C(=O)O1 [Linezolid] | 4100 nM | 1.2 µg/mL | 4100 nM | 1.2 µg/mL | 5800 nM | 1.7 µg/mL | 3400 nM | 1.0 µg/mL | 3100 nM | 0.9 µg/mL | 2 µg/mL (≈ 5.93 µM) | 2 µg/mL (≈ 5.93 µM) | 1 µg/mL (≈ 2.96 µM) | – | – | – | – | – | –
5 | COc1c(N2C[C@@H]3CCCN[C@@H]3C2)c(F)cc2c(=O)c(C(=O)O)cn(C3CC3)c12 [Moxifloxacin] | – | – | – | – | – | – | – | – | – | – | – | 0.06 µg/mL (≈ 0.149 µM) | – | – | 0.5 µg/mL (≈ 1.25 µM) | 0.25 µg/mL (≈ 0.623 µM) | – | – | –
6 | CO[C@H]1/C=C/O[C@@]2(C)Oc3c(C)c(O)c4c(O)c(c(/C=N/N5CCN(C)CC5)c(O)c4c3C2=O)NC(=O)/C(C)=C\C=C\[C@H](C)[C@H](O)[C@@H](C)[C@@H](O)[C@@H](C)[C@H](OC(C)=O)[C@@H]1C [Rifampicin] | – | – | – | – | – | – | – | – | – | – | 3.1 µg/mL (≈ 3.77 µM) | < 0.05 µg/mL | < 0.05 µg/mL | – | – | – | – | – | –
7 | [H]/N=C(/N)N[C@H]1[C@H](O)[C@@H](O)[C@H](O[C@@H]2O[C@@H](C)[C@](O)(C=O)[C@H]2O[C@@H]2O[C@@H](CO)[C@H](O)[C@@H](O)[C@@H]2NC)[C@@H](N/C(N)=N\[H])[C@@H]1O [Streptomycin] | 20 nM | 0.03 µg/mL | 50 nM | 0.07 µg/mL | 10 nM | 0.02 µg/mL | 410 nM | 0.6 µg/mL | 480 nM | 0.7 µg/mL | > 100 µg/mL | 6.25 µg/mL (≈ 10.7 µM) | > 100 µg/mL | – | – | – | – | – | –
8 | CN(C)[C@@H]1C(=O)C(C(N)=O)=C(O)[C@@]2(O)C(=O)C3=C(O)c4c(O)cccc4[C@@](C)(O)[C@H]3C[C@@H]12 [Tetracyclin] | 600 nM | 0.25 µg/mL | 900 nM | 0.4 µg/mL | 450 nM | 0.2 µg/mL | 2300 nM | 1.0 µg/mL | 1800 nM | 0.8 µg/mL | – | – | – | – | – | – | >100 µg/mL | 0.05 µg/mL (≈ 0.113 µM) | 0.2 µg/mL (≈ 0.45 µM)
